Test results published in ChEMBL document CHEMBL6127070, “Design, synthesis, and molecular dynamic simulations of some novel benzo[d]thiazoles with anti-virulence activity against Pseudomonas aeruginosa” (Eur J Med Chem, 2024).
The source made the active and inactive calls. The rule behind the calls is not given here.

Assays:
Candida albicans = experiment: Antimicrobial activity against Candida albicans ATCC 60193 assessed as growth inhibition zone by agar diffusion method; format: functional
Klebsiella pneumoniae = experiment: Antimicrobial activity against Klebsiella pneumoniae ATCC 700603 assessed as growth inhibition zone by agar diffusion method; format: functional
Pseudomonas aeruginosa [1] = experiment: Antimicrobial activity against Pseudomonas aeruginosa ATCC 27853 assessed as growth inhibition zone by agar diffusion method; format: functional
Pseudomonas aeruginosa [2] = experiment: Antibacterial activity against Pseudomonas aeruginosa assessed as effect on bacterial growth at 9.375 microg/ml incubated for 24 hrs by growth curve analysis; format: functional, organism-based; conditions: dose 9.375 µg/ml
Pseudomonas aeruginosa [3] = experiment: Antivirulence activity in Pseudomonas aeruginosa assessed as inhibition of rhamnolipids production at sub-MIC by spectrophotometric method relative to control; format: functional
Escherichia coli = experiment: Antimicrobial activity against Escherichia coli ATCC 25922 assessed as growth inhibition zone by agar diffusion method; format: functional
Pseudomonas aeruginosa [4] = experiment: Inhibition of biofilm formation in Pseudomonas aeruginosa assessed as absorbance by measuring OD at 570 nm at sub-MIC by crystal violet staining based analysis (reference value: 0.635 +/- 0.014); format: functional
Pseudomonas aeruginosa [5] = experiment: Inhibition of biofilm formation in Pseudomonas aeruginosa at sub-MIC by crystal violet staining based analysis relative to control; format: functional
Pseudomonas aeruginosa [6] = experiment: Antibacterial activity against Pseudomonas aeruginosa by CLSI protocol based broth microdilution method; format: functional; conditions: for MIC: Pseudomonas aeruginosa
Pseudomonas aeruginosa [7] = experiment: Antivirulence activity in Pseudomonas aeruginosa assessed as inhibition of pyocyanin production by measuring OD at […] at sub-MIC by chloroform-HCl extraction method relative to control; format: functional
Pseudomonas aeruginosa [8] = experiment: Antivirulence activity in Pseudomonas aeruginosa assessed as inhibition of pyocyanin production at sub-MIC by chloroform-HCl extraction method relative to control; format: functional
Staphylococcus aureus = experiment: Antimicrobial activity against Staphylococcus aureus ATCC 43300 assessed as growth inhibition zone by agar diffusion method; format: functional
Bacillus subtilis = experiment: Antimicrobial activity against Bacillus subtilis ATCC 6633 assessed as growth inhibition zone by agar diffusion method; format: functional
Pseudomonas aeruginosa [9] = experiment: Antibacterial activity against Pseudomonas aeruginosa assessed as effect on bacterial growth at 18.75 microg/ml incubated for 24 hrs by growth curve analysis; format: functional, organism-based; conditions: dose 18.75 µg/ml

Row | SMILES | inhibition zone (IZ) (Candida albicans) [mm] | inhibition zone (IZ) (Klebsiella pneumoniae) [mm] | inhibition zone (IZ) (Pseudomonas aeruginosa [1]) [mm] | Activity (Pseudomonas aeruginosa [2]) | inhibition (INH) (Pseudomonas aeruginosa [3]) [%] | inhibition zone (IZ) (Escherichia coli) [mm] | OD (Pseudomonas aeruginosa [4]) | inhibition (INH) (Pseudomonas aeruginosa [5]) [%] | SubMIC (Pseudomonas aeruginosa [6]) [µg/mL] | MIC (Pseudomonas aeruginosa [6]) | OD (Pseudomonas aeruginosa [7]) | inhibition (INH) (Pseudomonas aeruginosa [8]) [%] | inhibition zone (IZ) (Staphylococcus aureus) [mm] | inhibition zone (IZ) (Bacillus subtilis) [mm] | Activity (Pseudomonas aeruginosa [9])
1 | OC(Cn1cncn1)(Cn1cncn1)c1ccc(F)cc1F [FLUCONAZOLE] | 30 |  |  |  |  |  |  |  |  |  |  |  |  |  | 
2 | Cc1ccc(-c2ccnc3c(-c4nc5ccccc5s4)cnn23)cc1 | 28 | 26 | 24 | inactive | 45.3 | 22 | 0.26 | 59.1 | 9.375 | 18.8 µg/mL | 0.18 | 59.6 | 26 | 20 | 
3 | c1ccc(-c2ccnc3c(-c4nc5ccccc5s4)cnn23)cc1 | 21 | 21 | 20 |  | 13.3 | 19 | 0.472 | 25.7 | 18.75 | 37.5 µg/mL | 0.346 | 22.2 | 20 | 17 | inactive
4 | C[C@@H](O)[C@H]1C(=O)N2C(C(=O)O)=C(SCCNC=N)C[C@H]12 [IMIPENEM ANHYDROUS] |  | 18 | 12 |  |  | 22 |  |  |  | 93.9 µM |  |  | 24 | 20 | 
5 | Cc1nc2c(-c3nc4ccccc4s3)cnn2c(C)c1Cl | 22 | 22 | 21 |  | 21.2 | 21 | 0.406 | 36.1 | 18.75 | 37.5 µg/mL | 0.305 | 31.5 | 19 | 21 | inactive
6 | CC1CCN(c2ccc(/C=C(\C#N)c3nc4ccccc4s3)cc2)CC1 | 24 | 27 | 22 | inactive | 30.9 | 22 | 0.317 | 50.1 | 9.375 | 18.8 µg/mL | 0.264 | 40.7 | 22 | 20 | 
7 | Clc1ccc(-c2ccnc3c(-c4nc5ccccc5s4)cnn23)cc1 | 26 | 25 | 23 | inactive | 42.5 | 20 | 0.287 | 54.8 | 9.375 | 18.8 µg/mL | 0.205 | 53.9 | 25 | 21 | 
8 | COc1ccc(-c2ccnc3c(-c4nc5ccccc5s4)cnn23)cc1 | 23 | 19 | 22 | inactive | 28.6 | 22 | 0.342 | 46.1 | 9.375 | 18.8 µg/mL | 0.268 | 39.8 | 17 | 19 | 
9 | N#C/C(=C\c1ccc(N2CCCCC2)cc1)c1nc2ccccc2s1 | 25 | 24 | 23 | inactive | 34.9 | 25 | 0.303 | 52.3 | 9.375 | 18.8 µg/mL | 0.251 | 43.6 | 24 | 21 | 
